Experimental data from paper PMC11900971 (International Journal of Molecular Sciences, 2025).
Read-outs that look alike come from different tables or passages of the source.

Columns and labels:
[1] = tested on: Plasmodium falciparum, strain NF54, erythrocytic stages
[2] = tested on: L6 cells (rat skeletal myoblasts); conditions: read-out: Cyt L6 IC50
[3] = tested on: Trypanosoma brucei rhodesiense, STIB 900 strain, bloodstream forms
[4] = tested on: L6 cells (rat skeletal myoblasts); test: cells; conditions: L6, read-out: Cyt L6 IC50
[5] = tested on: Plasmodium falciparum, strain NF54, erythrocytic stages; test: microbe, parasite or virus in culture
[6] = tested on: Trypanosoma brucei rhodesiense, STIB 900 strain, bloodstream forms; test: microbe, parasite or virus in culture
[7] = NF54, read-out: P. falc. pIC50 (converted)
[8] = read-out: T. b. rhod. pIC50 (converted)

Row | Compound | IC50 ([5]; NF54, read-out: P. falc. IC50) [nM] | IC50 [5, 7] [nM] | IC50 ([6]; read-out: T. b. rhod. IC50) [nM] | IC50 [6, 8] [nM] | P. falc. pIC50 [1] | P. falc. pIC50 ([1]; pIC50 = -log10 IC50 (M), P. falciparum NF54) | SI (P. falc.) ([1]; ratio IC50 in L6 cells/IC50 in P. falciparum NF54) | IC50 ([1]; read-out: P. falc. IC50, P. falciparum strain NF54, erythrocytic stages) [nM] | IC50 [2] [nM] | T. b. rhod. pIC50 [3] | SI (T. b. rhod.) ([3]; ratio IC50 in L6 cells/IC50 in T. b. rhodesiense STIB900) | IC50 ([3]; read-out: T. b. rhod. IC50) [nM] | IC50 [4] [nM]
1 | 2-Methyl-2-{[4-(4,4,4-trifluorobutanamido)phenyl]methyl}-1,4-naphthoquinone [Compound 2n] |  |  |  |  |  | 6.80 | 92 | 159 | 14700 | 4.14 | 0 | 72200 | 
2 | CCN(CC)CCCC(C)Nc1ccnc2cc(Cl)ccc12 (centres unmarked) [Chl., chloroquine, reference compound] | 3 | 3.02 |  |  |  |  |  |  |  |  |  |  | 91100
3 | CC1=C(Cc2ccccc2)C(=O)c2ccccc2C1=O [Compound 2a, 2-Benzyl-3-methyl-1,4-naphthoquinone] | 358 | 355 | 62800 | 63100 |  |  |  |  |  |  |  |  | 45000
4 | CC1=C(Cc2ccc(C(F)(F)F)cc2F)C(=O)c2ccccc2C1=O [Compound 2c, 2-{[2-Fluoro-4-(trifluoromethyl)phenyl]methyl}-3-methyl-1,4-naphthoquinone] | 11 | 11.5 | 81400 | 81300 |  |  |  |  |  |  |  |  | 61700
5 | CC1=C(Cc2ccc(F)cc2C(F)(F)F)C(=O)c2ccccc2C1=O [Compound 2d, 2-{[4-Fluoro-2-(trifluoromethyl)phenyl]methyl}-3-methyl-1,4-naphthoquinone] | 20 | 20 | 23200 | 23400 |  |  |  |  |  |  |  |  | 62300
6 | CC1=C(Cc2cc(C(F)(F)F)ccc2F)C(=O)c2ccccc2C1=O [Compound 2e, 2-{[2-Fluoro-5-(trifluoromethyl)phenyl]methyl}-3-methyl-1,4-naphthoquinone] | 6 | 5.75 | 93000 | 93300 |  |  |  |  |  |  |  |  | 43000
7 | CC1=C(Cc2ccc(Cl)nc2)C(=O)c2ccccc2C1=O [Compound 2f, 2-[(6-Chloropyridin-3-yl)methyl]-3-methyl-1,4-naphthoquinone] | 37 | 37.2 | 8270 | 8320 |  |  |  |  |  |  |  |  | 24200
8 | CC1=C(Cc2ccc([N+](=O)[O-])cc2)C(=O)c2ccccc2C1=O [Compound 2g, 2-Methyl-3-[(4-nitrophenyl)methyl]-1,4-naphthoquinone] | 111 | 110 | 28000 | 28200 |  |  |  |  |  |  |  |  | 19100
9 | CC1=C(Cc2ccc([N+](=O)[O-])cc2F)C(=O)c2ccccc2C1=O [Compound 2h, 2-[(2-Fluoro-4-nitrophenyl)methyl]-3-methyl-1,4-naphthoquinone] | 22 | 21.4 | 25500 | 25700 |  |  |  |  |  |  |  |  | 17400
10 | CC1=C(Cc2cc(F)c(F)cc2F)C(=O)c2ccccc2C1=O [Compound 2i, 2-Methyl-3-[(2,4,5-trifluorophenyl)methyl]-1,4-naphthoquinone] | 44 | 44.7 | 30400 | 30200 |  |  |  |  |  |  |  |  | 54500
11 | CC(=O)Nc1ccc(CC2=C(C)C(=O)c3ccccc3C2=O)cc1 [Compound 2j, 2-[(4-Acetamidophenyl)methyl]-3-methyl-1,4-naphthoquinone] | 695 | 692 | 28900 | 28800 |  |  |  |  |  |  |  |  | 16300
12 | CC(=O)Nc1cccc(CC2=C(C)C(=O)c3ccccc3C2=O)c1 [Compound 2k, 2-[(3-Acetamidophenyl)methyl]-3-methyl-1,4-naphthoquinone] | 758 | 759 | 39500 | 39800 |  |  |  |  |  |  |  |  | 16600
13 | CC1=C(Cc2ccc(NC(=O)C(F)(F)F)cc2)C(=O)c2ccccc2C1=O [Compound 2l, 2-Methyl-3-{[4-(2,2,2-trifluoroacetamido)phenyl]methyl}-1,4-naphthoquinone] | 147 | 148 | 23400 | 23400 |  |  |  |  |  |  |  |  | 16100
14 | CC1=C(Cc2cccc(NC(=O)C(F)(F)F)c2)C(=O)c2ccccc2C1=O [Compound 2m, 2-Methyl-3-{[3-(2,2,2-trifluoroacetamido)phenyl]methyl}-1,4-naphthoquinone] | 321 | 324 | 24300 | 24000 |  |  |  |  |  |  |  |  | 13700
15 | CC1=C(Cc2cccc(NC(=O)CCC(F)(F)F)c2)C(=O)c2ccccc2C1=O [Compound 2o, 2-Methyl-3-{[3-(4,4,4-trifluorobutanamido)phenyl]methyl}-1,4-naphthoquinone] | 670 | 631 | 50800 | 51300 | 6.17 |  |  |  |  |  |  |  | 87500
16 | CC1=C(Cc2ccc(F)cc2)C(=O)c2ccccc2C1=O [Compound 2p, 2-[(4-Fluorophenyl)methyl]-3-methyl-1,4-naphthoquinone] | 43 | 42.7 | 33200 | 33100 |  |  |  |  |  |  |  |  | 51100
17 | CC1=C(Cc2ccc(OC(F)(F)F)cc2)C(=O)c2ccccc2C1=O [Compound 2q, 2-Methyl-3-{[4-(trifluoromethoxy)phenyl]methyl}-1,4-naphthoquinone] | 29 | 28.8 | 81600 | 81300 |  |  |  |  |  |  |  |  | 123000
18 | CC1=C(Cc2cccc(OC(F)(F)F)c2)C(=O)c2ccccc2C1=O [Compound 2r, 2-Methyl-3-{[3-(trifluoromethoxy)phenyl]methyl}-1,4-naphthoquinone] | 49 | 49 | 26100 | 26300 |  |  |  |  |  |  |  |  | 80500
19 | CC1=C(Cc2cc(OC(F)(F)F)ccc2F)C(=O)c2ccccc2C1=O [Compound 2s, 2-{[2-Fluoro-5-(trifluoromethoxy)phenyl]methyl}-3-methyl-1,4-naphthoquinone] | 38 | 38 | 75800 | 75900 |  |  |  |  |  |  |  |  | 83200
20 | Nc1nc(N)nc(Nc2ccc([As]3SCC(CO)S3)cc2)n1 (centres unmarked) [Mel., melarsoprol, reference compound] |  |  | 6 | 6.03 |  |  |  |  |  |  |  |  | 24200
21 | COc1cc([C@@H]2c3cc4c(cc3[C@H](O)[C@H]3COC(=O)[C@H]23)OCO4)cc(OC)c1OC [Pod., podophyllotoxin, reference compound] |  |  |  |  |  |  |  |  |  |  |  |  | 24

More lines, main results first:

Row | IC50 ([5]; NF54, read-out: P. falc. IC50) [nM] | IC50 [5, 7] [nM] | IC50 ([6]; read-out: T. b. rhod. IC50) [nM] | IC50 [6, 8] [nM] | P. falc. pIC50 [1] | Compound | P. falc. pIC50 ([1]; pIC50 = -log10 IC50 (M), P. falciparum NF54) | SI (P. falc.) ([1]; ratio IC50 in L6 cells/IC50 in P. falciparum NF54) | IC50 ([1]; read-out: P. falc. IC50, P. falciparum strain NF54, erythrocytic stages) [nM] | IC50 [2] [nM] | T. b. rhod. pIC50 [3] | SI (T. b. rhod.) ([3]; ratio IC50 in L6 cells/IC50 in T. b. rhodesiense STIB900) | IC50 ([3]; read-out: T. b. rhod. IC50) [nM] | IC50 [4] [nM]
22 | 2760 | 2750 | 318 | 316 |  | O=C1C=C(Cc2ccccc2)C(=O)c2ccccc21 [Compound 4a, 2-Benzyl-1,4-naphthoquinone] |  |  |  |  |  |  |  | 61600
23 | 686 | 692 | 503 | 501 |  | O=C1C=C(Cc2ccc(C(F)(F)F)cc2)C(=O)c2ccccc21 [Compound 4b, 2-{[4-(Trifluoromethyl)phenyl]methyl}-1,4-naphthoquinone] |  |  |  |  |  |  |  | 19200
24 | 1760 | 1780 | 790 | 794 |  | O=C1C=C(Cc2ccc(C(F)(F)F)cc2F)C(=O)c2ccccc21 [Compound 4c, 2-{[2-Fluoro-4-(trifluoromethyl)phenyl]methyl}-1,4-naphthoquinone] |  |  |  |  |  |  |  | 37000
25 | 2310 | 2290 | 1740 | 1740 |  | O=C1C=C(Cc2ccc(F)cc2C(F)(F)F)C(=O)c2ccccc21 [Compound 4d, 2-{[4-Fluoro-2-(trifluoromethyl)phenyl]methyl}-1,4-naphthoquinone] |  |  |  |  |  |  |  | 38400
26 | 2010 | 2000 | 522 | 525 |  | O=C1C=C(Cc2ccc(Cl)nc2)C(=O)c2ccccc21 [Compound 4e, 2-[(6-Chloropyridin-3-yl)methyl]-1,4-naphthoquinone] |  |  |  |  |  |  |  | 3940
27 | 3800 | 3800 | 1880 | 1910 |  | O=C1C(Cc2ccccc2)=C(C(F)(F)F)C(=O)c2ccccc21 [Compound 5a, 2-Benzyl-3-(trifluoromethyl)-1,4-naphthoquinone] |  |  |  |  |  |  |  | 10800
28 | 1460 | 1450 | 1960 | 1950 |  | O=C1C(Cc2ccc(C(F)(F)F)cc2)=C(C(F)(F)F)C(=O)c2ccccc21 [Compound 5b, 2-(Trifluoromethyl)-3-{[4-(trifluoromethyl)phenyl]methyl}-1,4-naphthoquinone] |  |  |  |  |  |  |  | 2000
29 | 2310 | 2290 | 9410 | 9330 |  | O=C1C(Cc2ccc(C(F)(F)F)cc2F)=C(C(F)(F)F)C(=O)c2ccccc21 [Compound 5c, 2-{[2-Fluoro-4-(trifluoromethyl)phenyl]methyl}-3-(trifluoromethyl)-1,4-naphthoquinone] |  |  |  |  |  |  |  | 805
